In patent US8946201B2, “Methods for inhibiting TGF-β” (Saint Louis University, priority 2007, dated 2015):

How the values were obtained:
[1] = tested on: TβR-I and TβR-II; test: Lipid raft / non-lipid raft localization by sucrose density gradient ultracentrifugation, Mv1Lu cells; type: cell-based, mink; conditions: for plasma membrane microdomain localization of TβR-II (FIG. 5F): 1 μM statin 16 hr, nystatin 25 μg/ml or cholesterol 50 μg/ml 1 hr
Description: (A, B, C, D) Cells were treated with or without 50 μg/ml cholesterol (A,B,C,D) or several concentrations of cholesterol, as indicated in the presence and absence of 1% β-CD (E) at 37° C. for 1 hr and further incubated with (C,D) and without (A,B) 50 pM TGF-β1 for 1 hr. The cell lysates from these treated cells were subjected to sucrose density gradient ultracentrifugation. After ultracentrifugation, fractions were collected and analyzed by 7.5% SDS-PAGE followed by Western blot analysis using antibodies to TβR-I, TβR-II and caveolin-1. […] Fractions 4 and 5 represent fractions containing lipid rafts/caveolae whereas fractions 7 and 8 represent non-lipid raft fractions.
(F, G) Cells were treated with or without 1 μM lovastatin/fluvastatin or nystatin (25 μg/ml)/cholesterol (50 μg/ml) at 37° C. for 16 hr or 1 hr, respectively. The treated cells were directly analyzed by sucrose density gradient ultracentrifugation analysis (F) or further incubated with 50 pM TGF-β at 37° C. for several time periods as indicated (G). Western blot analysis of the sucrose density gradient fractions (F) and of TGF-β1-treated cell lysates (G) was performed using antibody to TβR-II. The relative levels of TβR-II and α-actin were quantified by densitometry. Fractions ⅘ and 7 represent lipid raft/caveolae and non-lipid raft fractions, respectively. The asterisk (*) indicates the increased level of TβR-II in the fraction (F). The ratio of the relative intensities of TβR-II and α-actin in cells treated without TGF-β1 was taken as 100% of the TβR-II level. A representative of a total of three independent analyses is shown (G, top). The quantitative data from three independent analyses is shown (G, bottom). The data bar represents the mean±S.D.
Mv1Lu, CHO-K1, or NRK cells were grown to near confluence in 100-mm dishes (5-10×10^6 per dish). Cells were incubated with cholesterol ([…]) at 37° C. for 1 hours and then incubated with TGF-β1 (100 pM) for 1 hr. After two washes with ice-cold phosphate-buffered saline, cells were scraped into 0.85 ml of 500 mM sodium carbonate, pH 11.0. Homogenization was carried out with 10 strokes of a tight-fitting Dounce homogenizer followed by three 20-s bursts of ultrasonic disintegrator, (Soniprep 150; Fisher Scientific) to disrupt cellular membranes as described previously (32). The homogenates were adjusted to 45% sucrose by addition of 0.85 ml of 90% sucrose in 25 mM 2-(N-morpholino) ethanesulfonic acid, pH 6.5, 0.15 M NaCl (MBS), and placed at the bottom of an ultracentrifuge tube. […] Ten 0.5-ml fractions were collected from the top of the tubes, and a portion of each fraction was analyzed by SDS-PAGE followed by Western blot analysis using antibodies to TβR-I and TβR-II and caveolin-1. […]

[2] = tested on: TβR-I and TβR-II; test: 125I-TGF-β1 affinity labeling, BAEC; type: cell-based, bovine
Description: (B, C, D, E) Cells were treated with increasing concentrations of cholesterol in the presence (C) and absence (B, D, E) of 0.2% β-CD, as indicated. After 1 hr at 37° C., ^125I-TGF-β1 affinity labeling of TβR-I and TβR-II in cells was performed at 0° C. ^125I-TGF-β1 affinity-labeled TβR-I and TβR-II were analyzed by 7.5% SDS-PAGE and autoradiography or quantified with a PhosphoImager. A representative of a total of three analyses is shown (top). The bracket indicates the locations of ^125I-TGF-β affinity-labeled TβR-I and TβR-II. The relative intensities of ^125I-TGF-β1 affinity-labeled TβR-I and TβR-II in cells treated without cholesterol were taken as 100%. The quantitative data from three analyses is shown (bottom).
(A, B, C, D, E, F) Cells were treated with LDL (50 μg protein/ml), VLDL (5 μg protein/ml), HDL (50 μg protein/ml), lipoprotein (a) (10 μg/ml), fluvastatin (F; 1 μM), lovastatin (L; 1 μM), nystatin (Nys; 25 μg/ml), β-CD (β-CD; 8 mM), cholest-4-en-3-one (3-one; 50 μg/ml) or cholesterol (Chol; 50 μg/ml) alone or combination of two. After 1 hr at 37° C. or 16 hr at 37° C. (for fluvastatin and lovastatin), ^125I-TGF-β1 affinity labeling of cell-surface TGF-β receptors was performed at 0° C. ^125I-TGF-β1 affinity-labeled TβR-I and TβR-II were analyzed by 7.5% SDS-PAGE and autoradiography. The relative intensities of TβR-I and TβR-II were quantified with a PhosphoImager. The ratio of ^125I-TGF-β1 binding to TβR-II and TβR-I were estimated. The numbers above the lane sequence denote the ratio of TβR-II/TβR-I.
After cross-linking, cell lysates were analyzed by 7.5% SDS-PAGE and autoradiography or quantified by a PhosphoImager. For all experiments, cholesterol or cholesterol derivatives were prepared as the stock solution with a concentration of 25 mg/ml in ethanol. The final concentration of ethanol in the medium was 0.2% (by vol.).

Row | SMILES | plasma membrane microdomain localization of TβR-II (FIG. 5F) [1] | ratio of TβR-II/TβR-I ([2]; 1 μM, 37° C. 16 hr, BAEC cells, 2.47 untreated) | increase of 125I-TGF-β1 binding to TβR-I ([2]; 50 μg/ml, 1 hr, BAEC) | ratio of TβR-II/TβR-I ([2]; 50 μg/ml, 1 hr, BAEC, 3.5 untreated) | effect on binding of 125I-TGF-β1 to TβR-II ([2]; increasing concentrations, 1 hr, BAEC) | localization of TβR-I and TβR-II in plasma membrane fractions ([1]; 50 μg/ml, 1 hr, fractions 4 and 5)
1 | C[C@@H]1[C@H](O)[C@@H](C)/C=C/C=C/CC/C=C/C=C/C=C/C=C/C(O[C@H]2O[C@H](C)[C@@H](O)[C@H](N)[C@@H]2O)CC2O[C@](O)(CC(O)C(O)CCC(O)CC(O)CC(O)CC(=O)O[C@H]1C)CC(O)C2C(=O)O (some centres unmarked) [nystatin, reference compound] | increased the localization of TβR-II in non-lipid raft microdomains |  |  |  |  | 
2 | CC[C@H](C)C(=O)O[C@H]1C[C@@H](C)C=C2C=C[C@H](C)[C@H](CC[C@@H]3C[C@@H](O)CC(=O)O3)[C@H]21 [lovastatin, reference compound] | increased the localization of TβR-II in non-lipid raft microdomains | 2.6 |  |  |  | 
3 | CC(C)CCC[C@@H](C)[C@H]1CC[C@H]2[C@@H]3CC=C4C[C@@H](O)CC[C@]4(C)[C@H]3CC[C@]12C [cholesterol] | increased the localization of TβR-II in lipid rafts/caveolae |  | ~2.5 fold | 1.4 | did not significant alter | enriched in the lipid raft/caveolae fractions
